According to ChEMBL document CHEMBL1141089, “Conformationally restricted homotryptamines. 2. Indole cyclopropylmethylamines as selective serotonin reuptake inhibitors” (J Med Chem, 2005):
Several values for one entry are separate records, joined by “and”; a condition that tells them apart may be missing. Identical values can stand only once.

Key:
[1] = target: T1, Sodium-dependent serotonin transporter (Homo sapiens, UniProt P31645); experiment: Binding inhibition towards human serotonin transporter
T1 sequence (P31645 whole entry): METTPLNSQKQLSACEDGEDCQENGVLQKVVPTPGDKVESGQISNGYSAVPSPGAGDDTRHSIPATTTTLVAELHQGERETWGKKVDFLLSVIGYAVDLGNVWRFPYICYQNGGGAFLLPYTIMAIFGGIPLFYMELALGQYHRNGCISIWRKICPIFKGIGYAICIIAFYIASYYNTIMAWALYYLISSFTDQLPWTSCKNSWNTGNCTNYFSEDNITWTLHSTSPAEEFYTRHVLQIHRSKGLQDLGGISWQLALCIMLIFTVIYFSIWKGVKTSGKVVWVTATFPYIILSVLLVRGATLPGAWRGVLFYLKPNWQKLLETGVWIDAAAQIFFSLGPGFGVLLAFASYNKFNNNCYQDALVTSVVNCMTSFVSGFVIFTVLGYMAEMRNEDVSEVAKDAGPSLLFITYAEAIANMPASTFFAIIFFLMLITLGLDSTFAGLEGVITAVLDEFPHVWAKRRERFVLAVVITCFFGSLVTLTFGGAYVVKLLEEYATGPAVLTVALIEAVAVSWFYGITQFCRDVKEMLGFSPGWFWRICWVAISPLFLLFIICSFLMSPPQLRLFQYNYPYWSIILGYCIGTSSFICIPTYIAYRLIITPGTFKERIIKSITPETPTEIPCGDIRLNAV

[2] = target: T2, Sodium-dependent noradrenaline transporter (Homo sapiens, UniProt P23975); experiment: Binding inhibition towards human norepinephrine transporter at 1 uM
T2 sequence (P23975 whole entry): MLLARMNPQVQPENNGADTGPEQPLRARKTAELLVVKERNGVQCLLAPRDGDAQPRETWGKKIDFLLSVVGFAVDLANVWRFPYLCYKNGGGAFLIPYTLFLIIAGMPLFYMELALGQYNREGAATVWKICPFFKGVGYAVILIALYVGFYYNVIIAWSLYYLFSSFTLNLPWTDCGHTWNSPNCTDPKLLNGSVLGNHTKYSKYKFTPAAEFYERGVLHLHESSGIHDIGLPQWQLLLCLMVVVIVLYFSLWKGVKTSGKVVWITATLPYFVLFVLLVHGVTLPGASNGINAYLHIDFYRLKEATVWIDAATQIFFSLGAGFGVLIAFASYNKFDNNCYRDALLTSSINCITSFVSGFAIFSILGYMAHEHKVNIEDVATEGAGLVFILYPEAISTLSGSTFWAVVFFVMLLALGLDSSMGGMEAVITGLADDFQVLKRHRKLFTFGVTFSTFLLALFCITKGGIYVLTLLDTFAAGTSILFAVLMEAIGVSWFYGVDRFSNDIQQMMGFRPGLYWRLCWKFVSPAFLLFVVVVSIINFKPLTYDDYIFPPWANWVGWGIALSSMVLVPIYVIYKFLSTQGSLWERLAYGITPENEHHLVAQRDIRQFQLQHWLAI

[3] = target: T3, Sodium-dependent dopamine transporter (Homo sapiens, UniProt Q01959); experiment: Binding inhibition towards human dopamine transporter at 1 uM
T3 sequence (Q01959 whole entry): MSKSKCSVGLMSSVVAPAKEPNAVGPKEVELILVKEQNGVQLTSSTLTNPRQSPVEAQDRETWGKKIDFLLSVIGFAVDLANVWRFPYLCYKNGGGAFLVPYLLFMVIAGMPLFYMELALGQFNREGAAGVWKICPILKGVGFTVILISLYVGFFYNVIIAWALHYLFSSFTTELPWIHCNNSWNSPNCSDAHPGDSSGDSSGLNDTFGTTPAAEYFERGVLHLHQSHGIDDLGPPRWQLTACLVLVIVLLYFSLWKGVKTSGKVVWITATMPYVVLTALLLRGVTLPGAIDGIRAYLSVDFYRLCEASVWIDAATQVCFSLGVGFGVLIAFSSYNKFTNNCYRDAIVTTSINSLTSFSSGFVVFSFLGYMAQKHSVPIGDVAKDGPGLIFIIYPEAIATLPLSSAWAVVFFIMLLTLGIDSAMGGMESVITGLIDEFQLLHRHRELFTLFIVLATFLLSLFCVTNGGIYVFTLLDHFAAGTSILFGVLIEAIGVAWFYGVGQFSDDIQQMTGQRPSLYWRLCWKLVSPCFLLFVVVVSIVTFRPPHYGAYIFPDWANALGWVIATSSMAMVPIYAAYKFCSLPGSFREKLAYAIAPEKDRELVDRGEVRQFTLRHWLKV

[4] = target: T3, Sodium-dependent dopamine transporter; experiment: Binding inhibition towards human dopamine transporter
[5] = target: T1, Sodium-dependent serotonin transporter; experiment: In vitro binding inhibition towards human serotonin transporter
[6] = target: T2, Sodium-dependent noradrenaline transporter; experiment: In vitro binding affinity towards human norepinephrine transporter

Compound | Ki [1] | inhibition [2] | inhibition [3] | Ki [4] | Ki [5] | Ki [6]
CN(C)C[C@H]1C[C@@H]1c1cn(C)c2ccc(C#N)cc12 | 6.5 nM | < 50% | < 50% | – | – | –
CN(C)C[C@H]1C[C@@H]1c1c[nH]c2c(C#N)cccc12 (racemic) | 0.58 nM | < 50% | < 50% | – | – | –
CN(C)CCCc1c[nH]c2ccc(C#N)cc12 | 2 nM | < 50% | < 50% | – | – | –
CCn1cc([C@H]2C[C@@H]2CN(C)C)c2cc(C#N)ccc21 | 1.8 nM | < 50% | < 50% | – | – | –
CN(C)C[C@H]1C[C@@H]1c1c[nH]c2cccc(F)c12 (racemic) | 59 nM | < 50% | < 50% | – | – | –
CN(C)C[C@@H]1C[C@@H]1c1c[nH]c2ccc(F)cc12 (stereo in doubt; (-)-16e) [listing 1 of 2 here] | 14 nM | – | – | – | – | –
CN(C)C[C@@H]1C[C@H]1c1c[nH]c2ccc(F)cc12 | 41 nM | < 50% | < 50% | – | – | –
CN(C)C[C@H]1C[C@@H]1c1c[nH]c2ccc(F)cc12 (racemic) [listing 1 of 2 here] | 2.1 nM | – | – | – | – | –
CN(C)C[C@H]1C[C@@H]1c1c[nH]c2ccc(F)cc12 (racemic) [listing 2 of 2 here] | – | < 50% | < 50% | – | – | –
CN(C)CCCc1c[nH]c2ccc(F)cc12 | 4 nM | < 50% | < 50% | – | – | –
CN(C)C[C@@H]1C[C@@H]1c1c[nH]c2ccc(F)cc12 (stereo in doubt; 16e) [listing 1 of 2 here] | 24 nM | – | – | – | – | –
CN(C)C[C@@H]1C[C@@H]1c1c[nH]c2ccc(F)cc12 (stereo in doubt; 16e) [listing 2 of 2 here] | – | < 50% | < 50% | – | – | –
CN(C)C[C@H]1C[C@@H]1c1c[nH]c2ccc(F)cc12 [listing 1 of 2 here] | – | < 50% | < 50% | – | – | –
CN(C)C[C@H]1C[C@@H]1c1c[nH]c2ccc(C#N)cc12 (racemic) [listing 1 of 2 here] | – | < 50% | < 50% | – | – | –
CN(C)C[C@@H]1C[C@H]1c1c[nH]c2ccc(C#N)cc12 | 8.9 nM | < 50% | < 50% | – | – | –
CN(C)C[C@H]1C[C@@H]1c1c[nH]c2ccc(C#N)cc12 | – | – | – | 2100 nM | 0.18 nM | 4600 nM
CN(C)C[C@H]1C[C@@H]1c1c[nH]c2cc(C#N)ccc12 (racemic) | 7.4 nM | < 50% | < 50% | – | – | –
CN(C)C[C@H]1C[C@@H]1c1c[nH]c2c(F)cccc12 (racemic) | 10 nM | < 50% | < 50% | – | – | –
CN(C)C[C@H]1C[C@@H]1c1c[nH]c2cccc(C#N)c12 (racemic) | 230 nM and 420 nM | – | – | – | – | –
CN(C)C[C@@H]1C[C@@H]1c1c[nH]c2ccc(C#N)cc12 [listing 1 of 3 here] | 17 nM | – | – | – | – | –
CN(C)C[C@H]1C[C@H]1c1c[nH]c2ccc(F)cc12 | 100 nM | – | – | – | – | –
CN(C)C[C@@H]1C[C@@H]1c1c[nH]c2ccc(C#N)cc12 [listing 2 of 3 here] | – | < 50% | < 50% | – | – | –
CN(C)C[C@H]1C[C@H]1c1c[nH]c2ccc(C#N)cc12 | 5.7 nM | < 50% | < 50% | – | – | –
CN(C)C[C@H]1C[C@@H]1c1c[nH]c2cc(F)ccc12 (racemic) | 38 nM | < 50% | < 50% | – | – | –
CN(C)C[C@H]1C[C@@H]1c1c[nH]c2ccc(F)cc12 [listing 2 of 2 here] | 0.68 nM | – | – | – | – | –
CN(C)C[C@@H]1C[C@@H]1c1c[nH]c2ccc(F)cc12 (stereo in doubt; (-)-16e) [listing 2 of 2 here] | – | < 50% | < 50% | – | – | –
CN(C)C[C@H]1C[C@@H]1c1c[nH]c2ccc(C#N)cc12 (racemic) [listing 2 of 2 here] | 0.56 nM | – | – | – | – | –
CN(C)C[C@@H]1C[C@@H]1c1c[nH]c2ccc(C#N)cc12 [listing 3 of 3 here] | 7.1 nM | – | – | – | – | –
